The text below walks through data of the supplement of paper PMC11208160.

This data set can be described thus: recombinant UMI read abundance after kanamycin selection (control-corrected) (log10(CPM+1)); higher = more efficient recombination; extreme values may be limits of the assay; sequences stand for … in AGTGCAGAGAAAATCGGCCAGTTTTCTCTGCCTGCAGTCCGCATGCCGTGGGACCCCTTGGGTTCTAACCTGTTGCCTAGATTTATGCAGCGGACTGCCTTTCTCCCAAAGTGATAAACCGG…AGGTTGGTTTCACT; site = the 11-nt donor. The gist of the method:
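Each donor and donor-binding-loop pair was tracked by a 12-nt UMI on a plasmid carrying a promoterless kanamycin gene. With a second plasmid supplying a fixed target and T7-inducible IS621 bridge recombinase, the pool was plated in Escherichia coli on IPTG (0.07 mM) plus kanamycin or unselected. Sequencing of recombinant UMIs across the donor–target junction gave counts expressed as log10(CPM+1) after replicate averaging and control-derived scaling.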
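Further: IS621 bridge recombinase in Escherichia coli cells against a fixed T5 target plasmid.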

Turning to “CGAGTGTCATGGACCGGTTTTCCCGGTAATCCGTATTTGAC (site CGAGTGTCTGT)”, the “recombinant UMI read abundance (log10)” value worked out at 2.13. With “CGAGTGTCATGGACCGGTTTTCCCGGTAATCCGTATTTGAC (site CTAGTATCTGT)”, the “recombinant UMI read abundance (log10)” value is 0.545. The value for “CGATAAACATGGACCGGTTTTCCCGGTAATCCGTATTTGCG (site CGATAAACTCG)” was 2.63; that for “CGATAATCATGGACCGGTTTTCCCGGTAATCCGTATTTGCT (site CGATAATCTAG)” was 2.99. The value for “CGATAATCATGGACCGGTTTTCCCGGTAATCCGTATTTGCT (site CGATCATCTAG)” was 0; that for “CGATAATCATGGACCGGTTTTCCCGGTAATCCGTATTTGCT (site CGATGATCTAG)” was 0.

For the sequence “CGATAATCATGGACCGGTTTTCCCGGTAATCCGTATTTGCT (site CGATTATCTAG)”, the “recombinant UMI read abundance (log10)” value was 0.415. In the case of “CGATAGACATGGACCGGTTTTCCCGGTAATCCGTATTTGAG (site CGATAGACTCT)” it was 2.32; in that of “CGATAGACATGGACCGGTTTTCCCGGTAATCCGTATTTGAG (site CGCTAGACTCT)”, 0.00552; in that of “CGATAGACATGGACCGGTTTTCCCGGTAATCCGTATTTGAG (site CGGTAGACTCT)”, 0.902. The value for “CGATAGACATGGACCGGTTTTCCCGGTAATCCGTATTTGAG (site CGTTAGACTCT)” was 0.979; that for “CGATAGACATGGACCGGTTTTCCCGGTAATCCGTATTTGTT (site CGATAGACTAA)” was 2; that for “CGATAGACATGGACCGGTTTTCCCGGTAATCCGTATTTGTT (site CGATCGACTAA)” was 0.04. In the case of “CGATAGACATGGACCGGTTTTCCCGGTAATCCGTATTTGTT (site CGATGGACTAA)” it was 0.0144; in that of “CGATAGACATGGACCGGTTTTCCCGGTAATCCGTATTTGTT (site CGATTGACTAA)”, 0.00602.

For “CGATCAACATGGACCGGTTTTCCCGGTAATCCGTATTTGCT (site CGATCAACTAG)”, the “recombinant UMI read abundance (log10)” value was 2.27. The value for “CGATCAACATGGACCGGTTTTCCCGGTAATCCGTATTTGCT (site CGATCACCTAG)” was 0; that for “CGATCAACATGGACCGGTTTTCCCGGTAATCCGTATTTGCT (site CGATCAGCTAG)” was 0. In the case of “CGATCAACATGGACCGGTTTTCCCGGTAATCCGTATTTGCT (site CGATCATCTAG)” it was 0. In the case of “CGATCATCATGGACCGGTTTTCCCGGTAATCCGTATTTGAT (site CGATCATCTAA)” it was 0; in that of “CGATCATCATGGACCGGTTTTCCCGGTAATCCGTATTTGAT (site CGATCATCTAC)”, 0.213. Consider “CGATCATCATGGACCGGTTTTCCCGGTAATCCGTATTTGAT (site CGATCATCTAG)”, for which the “recombinant UMI read abundance (log10)” value is 0. In the case of “CGATCATCATGGACCGGTTTTCCCGGTAATCCGTATTTGAT (site CGATCATCTAT)” it was 0.727. In the case of “CGATCATCATGGACCGGTTTTCCCGGTAATCCGTATTTGCC (site CGATCATCTAG)” it was 0; in that of “CGATCATCATGGACCGGTTTTCCCGGTAATCCGTATTTGCC (site CGATCATCTCG)”, 0.00333; in that of “CGATCATCATGGACCGGTTTTCCCGGTAATCCGTATTTGCC (site CGATCATCTGG)”, 0. The value for “CGATCATCATGGACCGGTTTTCCCGGTAATCCGTATTTGCC (site CGATCATCTTG)” was 0; that for “CGATCATCATGGACCGGTTTTCCCGGTAATCCGTATTTGCG (site CGATCATCTAG)” was 0. Consider “CGATCATCATGGACCGGTTTTCCCGGTAATCCGTATTTGCG (site CGATCATCTCG)”, for which the “recombinant UMI read abundance (log10)” value amounted to 2.32. In the case of “CGATCATCATGGACCGGTTTTCCCGGTAATCCGTATTTGCG (site CGATCATCTGG)” it was 0; in that of “CGATCATCATGGACCGGTTTTCCCGGTAATCCGTATTTGCG (site CGATCATCTTG)”, 0.00387; in that of “CGATCCCCATGGACCGGTTTTCCCGGTAATCCGTATTTGGG (site CGATCCCCTCC)”, 0.00829. In the case of “CGATCCTCATGGACCGGTTTTCCCGGTAATCCGTATTTGGT (site CGATCATCTAG)” it was 0; in that of “CGATCCTCATGGACCGGTTTTCCCGGTAATCCGTATTTGGT (site CGATCCTCTAC)”, 1.74.
